Source: article PMC11002980 (RSC Advances, 2024)

Legend:
[1] = test system: MCF-7 breast cancer cells; assay: MTT cytotoxicity assay on MCF-7 cells; type: cell-based; conditions: Homo sapiens, MCF7, read-out: MCF-7 (IC50)
EGFR^wt kinase = EGFR^wt kinase (Homo sapiens, UniProt P00533); assay: EGFR^wt kinase inhibition assay; type: biochemical
Sequence of EGFR^wt kinase (P00533 25-1210): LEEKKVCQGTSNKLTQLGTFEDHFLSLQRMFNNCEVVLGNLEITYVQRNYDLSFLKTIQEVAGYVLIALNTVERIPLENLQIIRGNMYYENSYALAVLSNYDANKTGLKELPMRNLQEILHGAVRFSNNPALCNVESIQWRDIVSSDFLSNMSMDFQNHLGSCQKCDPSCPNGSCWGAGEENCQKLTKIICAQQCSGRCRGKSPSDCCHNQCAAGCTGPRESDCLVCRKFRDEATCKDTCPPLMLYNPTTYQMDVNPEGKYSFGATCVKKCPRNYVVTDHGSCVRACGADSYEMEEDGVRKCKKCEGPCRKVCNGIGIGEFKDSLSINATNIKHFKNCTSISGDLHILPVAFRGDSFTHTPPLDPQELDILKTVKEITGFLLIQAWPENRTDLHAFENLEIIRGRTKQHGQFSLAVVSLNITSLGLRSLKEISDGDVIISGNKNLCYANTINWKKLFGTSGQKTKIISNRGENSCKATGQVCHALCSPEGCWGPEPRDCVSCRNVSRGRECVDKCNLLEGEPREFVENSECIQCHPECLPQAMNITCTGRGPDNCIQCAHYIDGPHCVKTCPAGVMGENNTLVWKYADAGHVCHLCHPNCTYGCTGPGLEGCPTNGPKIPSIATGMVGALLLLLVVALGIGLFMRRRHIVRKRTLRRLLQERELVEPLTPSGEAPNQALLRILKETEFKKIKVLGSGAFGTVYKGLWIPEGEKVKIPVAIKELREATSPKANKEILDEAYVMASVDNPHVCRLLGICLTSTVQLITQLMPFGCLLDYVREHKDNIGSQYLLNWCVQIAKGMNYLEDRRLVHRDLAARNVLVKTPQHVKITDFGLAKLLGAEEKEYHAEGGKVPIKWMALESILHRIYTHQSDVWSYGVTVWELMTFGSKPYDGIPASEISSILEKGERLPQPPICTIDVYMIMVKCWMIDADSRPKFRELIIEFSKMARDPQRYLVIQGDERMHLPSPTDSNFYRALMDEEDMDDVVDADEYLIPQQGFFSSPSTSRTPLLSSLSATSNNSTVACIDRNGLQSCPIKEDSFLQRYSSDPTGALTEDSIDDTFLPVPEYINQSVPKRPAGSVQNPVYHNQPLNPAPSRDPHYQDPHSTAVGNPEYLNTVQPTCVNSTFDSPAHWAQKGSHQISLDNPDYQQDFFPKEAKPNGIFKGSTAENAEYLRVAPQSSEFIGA

Row | IC50 (EGFR^wt kinase) [µM] | Structure (SMILES) | IC50 [1] [µM]
1 | – | COc1ccc(NC(=O)C2=C(C)NC(C)=C(C(=O)Nc3ccc(OC)cc3OC)C2c2ccccc2)c(OC)c1 [HD-1, N ^3,N^5-Bis(2,4-dimethoxyphenyl)-2,6-dimethyl-4-phenyl-1,4-dihydropyridine-3,5-dicarboxamide] | 66.5
2 | – | COc1ccc(NC(=O)C2=C(C)NC(C)=C(C(=O)Nc3ccc(OC)cc3OC)C2c2ccc(Cl)cc2)c(OC)c1 [HD-2, 4-(4-Chlorophenyl)-N^3,N^5-bis(2,4-dimethoxyphenyl)-2,6-dimethyl-1,4-dihydropyridine-3,5-dicarboxamide] | 51.4
3 | – | COc1ccc(NC(=O)C2=C(C)NC(C)=C(C(=O)Nc3ccc(OC)cc3OC)C2c2cccc(Cl)c2)c(OC)c1 [HD-3, 4-(3-Chlorophenyl)-N^3,N^5-bis(2,4-dimethoxyphenyl)-2,6-dimethyl-1,4-dihydropyridine-3,5-dicarboxamide] | 59.4
4 | – | COc1ccc(NC(=O)C2=C(C)NC(C)=C(C(=O)Nc3ccc(OC)cc3OC)C2c2ccco2)c(OC)c1 [HD-4, N ^3,N^5-Bis(2,4-dimethoxyphenyl)-4-(furan-2-yl)-2,6-dimethyl-1,4-dihydropyridine-3,5-dicarboxamide] | 36
5 | – | COc1ccc(NC(=O)C2=C(C)NC(C)=C(C(=O)Nc3ccc(OC)cc3OC)C2c2ccc(O)cc2)c(OC)c1 [HD-5, N ^3,N^5-Bis(2,4-dimethoxyphenyl)-4-(4-hydroxyphenyl)-2,6-dimethyl-1,4-dihydropyridine-3,5-dicarboxamide] | 62.1
6 | 0.0305 ± 0.00148 | COc1cc(NC(=O)C2=C(C)NC(C)=C(C(=O)Nc3cc(OC)c(Cl)cc3OC)C2c2ccccc2)c(OC)cc1Cl [HD-6, N ^3,N^5-Bis(4-chloro-2,5-dimethoxyphenyl)-2,6-dimethyl-4-phenyl-1,4-dihydropyridine-3,5-dicarboxamide] | 21.3
7 | 0.0265 ± 0.00142 | COc1cc(NC(=O)C2=C(C)NC(C)=C(C(=O)Nc3cc(OC)c(Cl)cc3OC)C2c2ccc(Cl)cc2)c(OC)cc1Cl [HD-7, N ^3,N^5-Bis(4-chloro-2,5-dimethoxyphenyl)-4-(4-chlorophenyl)-2,6-dimethyl-1,4-dihydropyridine-3,5-dicarboxamide] | 16.8
8 | 0.0159 ± 0.0012 | COc1cc(NC(=O)C2=C(C)NC(C)=C(C(=O)Nc3cc(OC)c(Cl)cc3OC)C2c2cccc(Cl)c2)c(OC)cc1Cl [HD-8, N ^3,N^5-Bis(4-chloro-2,5-dimethoxyphenyl)-4-(3-chlorophenyl)-2,6-dimethyl-1,4-dihydropyridine-3,5-dicarboxamide] | 18.3
9 | – | COc1cc(NC(=O)C2=C(C)NC(C)=C(C(=O)Nc3cc(OC)c(Cl)cc3OC)C2c2ccco2)c(OC)cc1Cl [HD-9, N ^3,N^5-Bis(4-chloro-2,5-dimethoxyphenyl)-4-(furan-2-yl)-2,6-dimethyl-1,4-dihydropyridine-3,5-dicarboxamide] | 57.7
10 | – | COc1cc(NC(=O)C2=C(C)NC(C)=C(C(=O)Nc3cc(OC)c(Cl)cc3OC)C2c2ccc(O)cc2)c(OC)cc1Cl [HD-10, N ^3,N^5-Bis(4-chloro-2,5-dimethoxyphenyl)-4-(4-hydroxyphenyl)-2,6-dimethyl-1,4-dihydropyridine-3,5-dicarboxamide] | 39.6
11 | – | COc1ccc(NC(=O)C2=C(C)NC(C)=C(C(=O)Nc3cc(OC)c(Cl)cc3OC)C2c2ccccc2)c(OC)c1 (stereo not shown) [HD-11, N ^3-(4-Chloro-2,5-dimethoxyphenyl)-N^5-(2,4-dimethoxyphenyl)-2,6-dimethyl-4-phenyl-1,4-dihydropyridine-3,5-dicarboxamide] | 42.4
12 | – | COc1ccc(NC(=O)C2=C(C)NC(C)=C(C(=O)Nc3cc(OC)c(Cl)cc3OC)C2c2ccc(Cl)cc2)c(OC)c1 (stereo not shown) [HD-12, N ^3-(4-Chloro-2,5-dimethoxyphenyl)-4-(4-chlorophenyl)-N^5-(2,4-dimethoxyphenyl)-2,6-dimethyl-1,4-dihydropyridine-3,5-dicarboxamide] | 37.5
13 | – | COc1ccc(NC(=O)C2=C(C)NC(C)=C(C(=O)Nc3cc(OC)c(Cl)cc3OC)C2c2cccc(Cl)c2)c(OC)c1 (stereo not shown) [HD-13, N ^3-(4-Chloro-2,5-dimethoxyphenyl)-4-(3-chlorophenyl)-N^5-(2,4-dimethoxyphenyl)-2,6-dimethyl-1,4-dihydropyridine-3,5-dicarboxamide] | 44.1
14 | – | COc1ccc(NC(=O)C2=C(C)NC(C)=C(C(=O)Nc3cc(OC)c(Cl)cc3OC)C2c2ccco2)c(OC)c1 (stereo not shown) [HD-14, N ^3-(4-Chloro-2,5-dimethoxyphenyl)-N^5-(2,4-dimethoxyphenyl)-4-(furan-2-yl)-2,6-dimethyl-1,4-dihydropyridine-3,5-dicarboxamide] | 52.3
15 | – | COc1ccc(NC(=O)C2=C(C)NC(C)=C(C(=O)Nc3cc(OC)c(Cl)cc3OC)C2c2ccc(O)cc2)c(OC)c1 (stereo not shown) [HD-15, N ^3-(4-Chloro-2,5-dimethoxyphenyl)-N^5-(2,4-dimethoxyphenyl)-4-(4-hydroxyphenyl)-2,6-dimethyl-1,4-dihydropyridine-3,5-dicarboxamide] | 42.2
16 | – | CS(=O)(=O)CCNCc1ccc(-c2ccc3ncnc(Nc4ccc(OCc5cccc(F)c5)c(Cl)c4)c3c2)o1 [Lapatinib, reference compound] | 2.02
